In ChEMBL document CHEMBL6114954, “Design, synthesis and cytotoxic activity of novel lipophilic cationic derivatives of diosgenin and sarsasapogenin” (Bioorg Med Chem Lett, 2025):
Active and inactive are the calls of the source. The rule behind the calls is not given here.

Key:
[1] = test system: MDA-MB-231; test: Cytotoxicity against human MDA-MB-231 cells; type: functional, cell-based
[2] = test system: HepG2; test: Cytotoxicity against human HepG2 cells; type: functional, cell-based
[3] = test system: A549; test: Cytotoxicity against human A549 cells; type: functional, cell-based
[4] = test system: A549; test: Induction of mitochondrial membrane potential depolarization in human A549 cells at 1 uM by JC-1 staining based flow cytometry (reference value: 7.4 %); type: functional
[5] = test system: A549; test: Induction of mitochondrial membrane potential depolarization in human A549 cells at 4 uM by JC-1 staining based flow cytometry (reference value: 7.4 %); type: functional
[6] = test system: A549; test: Induction of apoptosis in human A549 cells assessed as apoptosis ratio at 2 uM incubated for 24 hrs by Annexin V-FITC/PI staining based flow cytometry (reference value: 4.38 %); type: functional
[7] = test system: A549; test: Induction of apoptosis in human A549 cells assessed as decrease in pro-caspase 3 level upto 4 microM by Western blot analysis; type: functional, cell-based
[8] = test system: A549; test: Induction of cell cycle arrest in human A549 cells assessed as accumulation at G0/G1 phase at 1 to 4 uM incubated for 24 hrs by PI staining based flow cytometry; type: functional; settings: dose 1-4 µM
[9] = test system: A549; test: Induction of apoptosis in human A549 cells assessed as apoptosis ratio at 4 uM incubated for 24 hrs by Annexin V-FITC/PI staining based flow cytometry (reference value: 4.38 %); type: functional
[10] = test system: A549; test: Induction of apoptosis in human A549 cells assessed as apoptosis ratio at 1 uM incubated for 24 hrs by Annexin V-FITC/PI staining based flow cytometry (reference value: 4.38 %); type: functional
[11] = test system: A549; test: Induction of mitochondrial membrane potential depolarization in human A549 cells at 2 uM by JC-1 staining based flow cytometry (reference value: 7.4 %); type: functional
[12] = test system: A549; test: Induction of intracellular ROS generation in human A549 cells incubated for 48 hrs by DCFH-DA staining based analysis; type: functional, cell-based; settings: dose 1-4 µM
[13] = test system: A549; test: Induction of apoptosis in human A549 cells assessed as increase in Bax level by Western blot analysis; type: functional, cell-based; settings: dose <= 4.0 µM
[14] = test system: A549; test: Induction of apoptosis in human A549 cells assessed as decrease in Bcl-2 level by Western blot analysis; type: functional, cell-based; settings: dose <= 4.0 µM

SMILES	IC50 [1] [µM]	IC50 [2] [µM]	IC50 [3] [µM]	further results
CC(=O)O[C@H]1CC[C@@]2(C)C(=CC[C@H]3[C@@H]4C[C@@H]5O[C@H](CC[C@@H](C)COC(=O)C[P+](c6ccccc6)(c6ccccc6)c6ccccc6)[C@@H](C)[C@@H]5[C@@]4(C)CC[C@@H]32)C1	32	25.4	10.8	–
CC[N+]1(CCCC(=O)O[C@H]2CC[C@@]3(C)C(=CC[C@H]4[C@@H]5C[C@@H]6O[C@]7(CCC(C)CO7)[C@@H](C)[C@@H]6[C@@]5(C)CC[C@@H]43)C2)CCNCC1 (some centres not stated)	49.2	33.7	18.6	–
CC1CC[C@@]2(OC1)O[C@H]1C[C@H]3[C@@H]4CC[C@@H]5C[C@@H](OC(=O)C[P+](c6ccccc6)(c6ccccc6)c6ccccc6)CC[C@]5(C)[C@H]4CC[C@]3(C)[C@H]1[C@@H]2C (some centres not stated)	42.9	22.6	5.23	–
CC[N+]1(CCCC(=O)OC[C@H](C)CC[C@H]2O[C@H]3C[C@H]4[C@@H]5CC=C6C[C@@H](OC(C)=O)CC[C@]6(C)[C@H]5CC[C@]4(C)[C@H]3[C@@H]2C)CCNCC1	36.4	34.6	13.7	–
CC(=O)O[C@H]1CC[C@@]2(C)C(=CC[C@H]3[C@@H]4C[C@@H]5O[C@H](CC[C@@H](C)COC(=O)CC[P+](c6ccccc6)(c6ccccc6)c6ccccc6)[C@@H](C)[C@@H]5[C@@]4(C)CC[C@@H]32)C1	38.5	26.2	5.99	–
CC[N+]1(CCCC(=O)O[C@H]2CC[C@@]3(C)[C@H](CC[C@@H]4[C@@H]3CC[C@]3(C)[C@@H]5[C@H](C[C@@H]43)O[C@]3(CCC(C)CO3)[C@H]5C)C2)CCCCC1 (some centres not stated)	37.8	19.9	14.6	–
CC[N+]1(CCCC(=O)OC[C@H](C)CC[C@H]2O[C@H]3C[C@H]4[C@@H]5CC=C6C[C@@H](OC(C)=O)CC[C@]6(C)[C@H]5CC[C@]4(C)[C@H]3[C@@H]2C)CCOCC1	> 50	> 50	17.4	–
CC1CC[C@@]2(OC1)O[C@H]1C[C@H]3[C@@H]4CC=C5C[C@@H](OC(=O)CCCCC[P+](c6ccccc6)(c6ccccc6)c6ccccc6)CC[C@]5(C)[C@H]4CC[C@]3(C)[C@H]1[C@@H]2C (some centres not stated)	5.49	4.19	1.24	–
CC(=O)O[C@H]1CC[C@@]2(C)C(=CC[C@H]3[C@@H]4C[C@@H]5O[C@H](CC[C@@H](C)COC(=O)CCC[P+](c6ccccc6)(c6ccccc6)c6ccccc6)[C@@H](C)[C@@H]5[C@@]4(C)CC[C@@H]32)C1	31.5	23.7	6.06	–
CC1CC[C@@]2(OC1)O[C@H]1C[C@H]3[C@@H]4CC[C@@H]5C[C@@H](OC(=O)CCCCC[P+](c6ccccc6)(c6ccccc6)c6ccccc6)CC[C@]5(C)[C@H]4CC[C@]3(C)[C@H]1[C@@H]2C (some centres not stated)	5.01	4.18	1.3	–
CC[N+]1(CCCC(=O)O[C@H]2CC[C@@]3(C)[C@H](CC[C@@H]4[C@@H]3CC[C@]3(C)[C@@H]5[C@H](C[C@@H]43)O[C@]3(CCC(C)CO3)[C@H]5C)C2)CCNCC1 (some centres not stated)	> 50	> 50	26.1	–
CC1CC[C@@]2(OC1)O[C@H]1C[C@H]3[C@@H]4CC=C5C[C@@H](OC(=O)C[P+](c6ccccc6)(c6ccccc6)c6ccccc6)CC[C@]5(C)[C@H]4CC[C@]3(C)[C@H]1[C@@H]2C (some centres not stated)	33.3	22.2	15.6	–
CC1CC[C@@]2(OC1)O[C@H]1C[C@H]3[C@@H]4CC[C@@H]5C[C@@H](OC(=O)CCC[P+](c6ccccc6)(c6ccccc6)c6ccccc6)CC[C@]5(C)[C@H]4CC[C@]3(C)[C@H]1[C@@H]2C (some centres not stated)	3.62	3.44	1	–
CC1CC[C@@]2(OC1)O[C@H]1C[C@H]3[C@@H]4CC[C@@H]5C[C@@H](OC(=O)CC[P+](c6ccccc6)(c6ccccc6)c6ccccc6)CC[C@]5(C)[C@H]4CC[C@]3(C)[C@H]1[C@@H]2C (some centres not stated)	4.26	3.34	1.09	–
CC(=O)O[C@H]1CC[C@@]2(C)C(=CC[C@H]3[C@@H]4C[C@@H]5O[C@H](CC[C@@H](C)COC(=O)CCCCC[P+](c6ccccc6)(c6ccccc6)c6ccccc6)[C@@H](C)[C@@H]5[C@@]4(C)CC[C@@H]32)C1	36.6	30.1	5.63	–
CC[N+]1(CCCC(=O)O[C@H]2CC[C@@]3(C)[C@H](CC[C@@H]4[C@@H]3CC[C@]3(C)[C@@H]5[C@H](C[C@@H]43)O[C@]3(CCC(C)CO3)[C@H]5C)C2)CCc2ccccc2C1 (some centres not stated)	13.8	9.52	10.8	–
CC[N+]1(CCCC(=O)OC[C@H](C)CC[C@H]2O[C@H]3C[C@H]4[C@@H]5CC=C6C[C@@H](OC(C)=O)CC[C@]6(C)[C@H]5CC[C@]4(C)[C@H]3[C@@H]2C)CCCC1	> 50	> 50	20.7	–
CC1CC[C@@]2(OC1)O[C@H]1C[C@H]3[C@@H]4CC=C5C[C@@H](OC(=O)CCC[P+](c6ccccc6)(c6ccccc6)c6ccccc6)CC[C@]5(C)[C@H]4CC[C@]3(C)[C@H]1[C@@H]2C.[Br-] (some centres not stated)	4.16	3.95	0.95	Activity [4]: 17.4%; Activity [5]: 91.2%; Activity [6]: 23.95%; Activity [7]: Active; Activity [8]: Active; Activity [9]: 48.2%; Activity [10]: 8.51%; Activity [11]: 40.6%; Activity [12]: Dose-dependent-effect; Activity [13]: Dose-dependent-effect; Activity [14]: Dose-dependent-effect
CC[N+]1(CCCC(=O)O[C@H]2CC[C@@]3(C)[C@H](CC[C@@H]4[C@@H]3CC[C@]3(C)[C@@H]5[C@H](C[C@@H]43)O[C@]3(CCC(C)CO3)[C@H]5C)C2)CCOCC1 (some centres not stated)	34.8	22.6	18.7	–
CC[N+]1(CCCC(=O)O[C@H]2CC[C@@]3(C)[C@H](CC[C@@H]4[C@@H]3CC[C@]3(C)[C@@H]5[C@H](C[C@@H]43)O[C@]3(CCC(C)CO3)[C@H]5C)C2)CCCC1 (some centres not stated)	16.2	9.08	15.4	–
CC[N+]1(CCCC(=O)O[C@H]2CC[C@@]3(C)C(=CC[C@H]4[C@@H]5C[C@@H]6O[C@]7(CCC(C)CO7)[C@@H](C)[C@@H]6[C@@]5(C)CC[C@@H]43)C2)CCOCC1 (some centres not stated)	41.6	27.9	29.1	–
CC[N+]1(CCCC(=O)O[C@H]2CC[C@@]3(C)C(=CC[C@H]4[C@@H]5C[C@@H]6O[C@]7(CCC(C)CO7)[C@@H](C)[C@@H]6[C@@]5(C)CC[C@@H]43)C2)CCc2ccccc2C1 (some centres not stated)	20.6	18.8	8.43	–
C[C@@H]1CC[C@@]2(OC1)O[C@H]1C[C@H]3[C@@H]4CC=C5C[C@@H](O)CC[C@]5(C)[C@H]4CC[C@]3(C)[C@H]1[C@@H]2C [DISOGENIN]	> 50	> 50	–	–
CC[N+]1(CCCC(=O)O[C@H]2CC[C@@]3(C)C(=CC[C@H]4[C@@H]5C[C@@H]6O[C@]7(CCC(C)CO7)[C@@H](C)[C@@H]6[C@@]5(C)CC[C@@H]43)C2)CCCCC1 (some centres not stated)	40.5	19.2	15.4	–
CC1CC[C@@]2(OC1)O[C@H]1C[C@H]3[C@@H]4CC=C5C[C@@H](OC(=O)CC[P+](c6ccccc6)(c6ccccc6)c6ccccc6)CC[C@]5(C)[C@H]4CC[C@]3(C)[C@H]1[C@@H]2C (some centres not stated)	7.92	8.28	1.19	–
CC[N+]1(CCCC(=O)OC[C@H](C)CC[C@H]2O[C@H]3C[C@H]4[C@@H]5CC=C6C[C@@H](OC(C)=O)CC[C@]6(C)[C@H]5CC[C@]4(C)[C@H]3[C@@H]2C)CCc2ccccc2C1 (some centres not stated)	34.8	33.5	14.4	–
C[C@@H]1CC[C@@]2(OC1)O[C@H]1C[C@H]3[C@@H]4CC[C@@H]5C[C@@H](O)CC[C@]5(C)[C@H]4CC[C@]3(C)[C@H]1[C@@H]2C	> 50	> 50	> 50	–
CC[N+]1(CCCC(=O)O[C@H]2CC[C@@]3(C)C(=CC[C@H]4[C@@H]5C[C@@H]6O[C@]7(CCC(C)CO7)[C@@H](C)[C@@H]6[C@@]5(C)CC[C@@H]43)C2)CCCC1 (some centres not stated)	26.4	16.8	16.2	–
CC[N+]1(CCCC(=O)OC[C@H](C)CC[C@H]2O[C@H]3C[C@H]4[C@@H]5CC=C6C[C@@H](OC(C)=O)CC[C@]6(C)[C@H]5CC[C@]4(C)[C@H]3[C@@H]2C)CCCCC1	> 50	> 50	18	–
